Legend:
A. donax explants = experiment: Phosphinothricin selection of explants on solid selective medium; format: cell-based, Arundo donax L.; conditions: 10 mg/l
Procedure: Cross-sectional segment of immature A. donax inflorescence were prepared and cultivated as described in Example 2. The totipotent tissue was cocultivated with Agrobacterium tumefaciens carrying plasmid pMSF3022, which carried the bar gene for positive selection in plant cells. The gene confers resistance to the antibiotic/herbicide phosphinothricin.
Cocultivation was carried out in 6 ml. of liquid primary culture medium for four days in the dark at room temperature. Explants were then rinsed with liquid medium and placed on solid selective and non-selective control medium containing the antibiotic/herbicide phosphinothricine at 10 mg/l. All medium contained tidarcillin at 400 mg/l to eliminate residual A. tumefaciens. Controls include explants incubated without A. tumefaciens. […] This can be contrasted with control explants (which were not contacted with A. tumefaciens) that were killed by 10 mg/l of phosphinothricin (FIG. 3A). Also shown are control explants that have developed callus in the absence of phosphinothricin (FIG. 3B), and cocultivated explants that have developed callus in the absence of phosphinothricin (FIG. 3D).

A. donax plants (roots) = experiment: Trichloroethene challenge of cloned plants in phytoreactor; format: in vivo, Arundo donax L.; conditions: 0.25 mM in hydroponic solution; after recovery period of 3 to 4 weeks
Procedure: Sustained titopotent cultures of A donax were grown as described in Example 2, and cloned plants derived from the titopotent tissues were established in a standard liquid hydroponic solution in plastic tubs (Shown in FIG. 4A). In one phytoreactor tub, trichloroethene (trichloroethylene) was added to a concentration of 0.25 mM. This was believed to be a high concentration of the organic material, because the allowable EPA concentration is 0.005 mg/l.

Row | SMILES | effect on explants cocultivated with Agrobacterium tumefaciens (bar gene) (A. donax explants; cocultivated explants) | effect on control explants (A. donax explants; control explants not contacted with A. tumefaciens) | state of roots after challenge (A. donax plants (roots))
1 | CP(=O)(O)CC[C@H](N)C(=O)O [phosphinothricin] | development of herbicide resistant embryogenic tissue | killed | –
2 | ClC=C(Cl)Cl [trichloroethene] | – | – | fully recovered

Reference: US20020166149A1, “Sustained totipotent regenerable tissue culture of Arundo donax (Giant Reed) and totipotent tissue and plants produced therefrom” (priority 2001, published 2002)
